Measurements taken from article PMC6317416, “Thermophilic phosphoribosyltransferases Thermus thermophilus HB27 in nucleotide synthesis” (Beilstein Journal of Organic Chemistry, 2018).

System: T1, TthHPRT (hypoxanthine phosphoribosyltransferase Thermus thermophilus HB27)
T1 construct: gene hpt; C-terminal His-tag (pET-23a+), E. coli C3030
Assay: HPLC product quantification, initial rate, nonlinear regression
Assay type: biochemical
Conditions: 5 mM MgCl2, 20 mM Tris-HCl pH 8.0, 70 °C
Excerpt: HPLC product quantification, initial rate, nonlinear regression on TthHPRT (hypoxanthine phosphoribosyltransferase Thermus thermophilus HB27)

Km (0.50 mM hypoxanthine) | SMILES | Km (1 mM PRPP)
220 ± 60 µM | O=P(O)(O)OC[C@H]1O[C@H](OP(=O)(O)OP(=O)(O)O)[C@H](O)[C@@H]1O [PRPP] | 
 | Nc1nc2[nH]cnc2c(=O)[nH]1 [guanine] | 28 ± 9 µM
 | O=c1[nH]cnc2nc[nH]c12 [hypoxanthine] | 13 ± 4 µM
